# Results as given in ChEMBL document CHEMBL5113403, “Design, synthesis, and biological evaluation of novel pyrazolo [3,4-d]pyrimidine derivatives as potent PLK4 inhibitors for the treatment of TRIM37-amplified breast cancer” (Eur J Med Chem, 2022).
# Experiments:
# [1] = tested on: MCF7; assay: Induction of cell cycle arrest in human MCF7 cells assessed as decrease in G1 phase cells at 0.25 uM measured after 48 hrs by flow cytometry analysis (reference value: 56.9 %); type: functional; parameters: scale not given: the % may be the effect or the level left
# [2] = tested on: MCF7; assay: Induction of apoptosis in human MCF7 cells assessed as late apoptotic cells at 0.50 uM incubated for 48 hrs by Annexin-V-FITC/PI staining based flow cytometric analysis (reference value: 0.019 %); type: functional; details: dose 0.5 µM
# [3] = molecular target: T1, CYP1A2 (Homo sapiens, UniProt P05177); assay: Inhibition of CYP1A2 in human liver microsomes at 10 uM preincubated for 10 mins followed by addition of NADPH-regenerating system and measured after 15 mins by LC-MS/MS analysis relative to control; type: ADME, Microsome; details: time 25 min
# T1 sequence (P05177 whole entry): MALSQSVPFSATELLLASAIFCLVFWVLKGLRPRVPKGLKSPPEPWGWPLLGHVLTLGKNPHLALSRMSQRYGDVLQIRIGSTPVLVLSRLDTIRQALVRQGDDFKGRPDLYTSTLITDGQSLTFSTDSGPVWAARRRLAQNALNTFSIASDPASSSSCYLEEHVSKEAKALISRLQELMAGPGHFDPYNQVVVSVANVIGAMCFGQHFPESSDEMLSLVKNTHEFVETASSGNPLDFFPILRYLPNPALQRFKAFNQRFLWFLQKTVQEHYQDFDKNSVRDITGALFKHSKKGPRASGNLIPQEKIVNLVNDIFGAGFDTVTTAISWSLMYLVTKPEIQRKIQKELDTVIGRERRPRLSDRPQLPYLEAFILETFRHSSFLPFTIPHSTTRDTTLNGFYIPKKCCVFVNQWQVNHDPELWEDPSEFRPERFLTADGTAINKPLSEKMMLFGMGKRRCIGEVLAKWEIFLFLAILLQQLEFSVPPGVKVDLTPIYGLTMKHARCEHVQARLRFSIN
# [4] = molecular target: Serine/threonine-protein kinase PAK 4 (Homo sapiens, UniProt O96013); assay: Inhibition of PAK4 (unknown origin) incubated for 60 mins by time-resolved HTRF assay
# [5] = tested on: MCF7; assay: Induction of apoptosis in human MCF7 cells assessed as viable cells at 0.10 uM incubated for 48 hrs by Annexin-V-FITC/PI staining based flow cytometric analysis (reference value: 97 %); type: functional; details: dose 0.1 µM
# [6] = tested on: MCF7; assay: Induction of cell cycle arrest in human MCF7 cells assessed as G2 phase cells at 0.50 uM measured after 48 hrs by flow cytometry analysis (reference value: 31.8 %); type: functional; details: dose 0.5 µM
# [7] = tested on: MCF7; assay: Induction of apoptosis in human MCF7 cells assessed as viable cells at 0.50 uM incubated for 48 hrs by Annexin-V-FITC/PI staining based flow cytometric analysis (reference value: 97 %); type: functional; details: dose 0.5 µM
# [8] = tested on: MCF7; assay: Induction of cell cycle arrest in human MCF7 cells assessed as G2 phase cells at 2.5 uM measured after 48 hrs by flow cytometry analysis (reference value: 31.8 %); type: functional
# [9] = tested on: MCF7; assay: Antiproliferative activity against human MCF7 cells assessed as cell growth inhibition incubated for 5 days by MTT assay; type: functional, cell-based; details: MCF7, 120 h
# [10] = tested on: MCF7; assay: Induction of apoptosis in human MCF7 cells assessed as late apoptotic cells at 0.10 uM incubated for 48 hrs by Annexin-V-FITC/PI staining based flow cytometric analysis (reference value: 0.019 %); type: functional; details: dose 0.1 µM
# [11] = Oral bioavailability in Sprague-Dawley rat at 10 mg/kg by LC-MS/MS analysis; type: ADME, organism-based; details: in vivo
# [12] = tested on: MCF7; assay: Induction of cell cycle arrest in human MCF7 cells assessed as less G1 phase cells at 0.25 uM measured after 48 hrs by flow cytometry analysis (reference value: 0.44 %); type: functional
# [13] = tested on: MCF7; assay: Induction of apoptosis in human MCF7 cells assessed as early apoptotic cells at 0.50 uM incubated for 48 hrs by Annexin-V-FITC/PI staining based flow cytometric analysis (reference value: 2.83 %); type: functional; details: dose 0.5 µM
# [14] = tested on: MCF7; assay: Induction of cell cycle arrest in human MCF7 cells assessed as greater G1 phase cells at 0.10 uM measured after 48 hrs by flow cytometry analysis (reference value: 0.78 %); type: functional; details: dose 0.1 µM
# [15] = MRT in Sprague-Dawley rat at 3 mg/kg, iv by LC-MS/MS analysis; type: ADME, organism-based; details: in vivo
# [16] = tested on: MCF7; assay: Induction of apoptosis in human MCF7 cells assessed as early apoptotic cells at 2.5 uM incubated for 48 hrs by Annexin-V-FITC/PI staining based flow cytometric analysis (reference value: 2.83 %); type: functional
# [17] = tested on: MCF7; assay: Induction of cell cycle arrest in human MCF7 cells assessed as less G1 phase cells at 2.5 uM measured after 48 hrs by flow cytometry analysis (reference value: 0.44 %); type: functional
# [18] = tested on: MCF7; assay: Induction of apoptosis in human MCF7 cells assessed as early apoptotic cells at 1 uM incubated for 48 hrs by Annexin-V-FITC/PI staining based flow cytometric analysis (reference value: 2.83 %); type: functional
# [19] = tested on: MCF7; assay: Induction of cell cycle arrest in human MCF7 cells assessed as S phase cells at 1 uM measured after 48 hrs by flow cytometry analysis (reference value: 9.31 %); type: functional
# [20] = tested on: MCF7; assay: Induction of cell cycle arrest in human MCF7 cells assessed as less G1 phase cells at 1 uM measured after 48 hrs by flow cytometry analysis (reference value: 0.44 %); type: functional
# [21] = tested on: MCF7; assay: Induction of apoptosis in human MCF7 cells assessed as necrotic cells at 0.10 uM incubated for 48 hrs by Annexin-V-FITC/PI staining based flow cytometric analysis (reference value: 0.18 %); type: functional; details: dose 0.1 µM
# [22] = tested on: MCF7; assay: Induction of apoptosis in human MCF7 cells assessed as total apoptotic cells at 2.50 uM incubated for 48 hrs by Annexin-V-FITC/PI staining based flow cytometric analysis relative to control; type: functional; details: dose 2.5 µM
# [23] = tested on: MCF7; assay: Induction of apoptosis in human MCF7 cells assessed as total apoptotic cells at 0.10 uM incubated for 48 hrs by Annexin-V-FITC/PI staining based flow cytometric analysis relative to control; type: functional; details: dose 0.1 µM
# [24] = molecular target: CYP2C9 (Homo sapiens, UniProt P11712); assay: Inhibition of CYP2C9 in human liver microsomes at 10 uM preincubated for 10 mins followed by addition of NADPH-regenerating system and measured after 15 mins by LC-MS/MS analysis relative to control; type: ADME, Microsome; details: time 25 min
# [25] = tested on: MCF7; assay: Induction of cell cycle arrest in human MCF7 cells assessed as decrease in G1 phase cells at 0.10 uM measured after 48 hrs by flow cytometry analysis (reference value: 56.9 %); type: functional; parameters: scale not given: the % may be the effect or the level left; details: dose 0.1 µM
# [26] = tested on: MCF7; assay: Induction of apoptosis in human MCF7 cells assessed as viable cells at 2.5 uM incubated for 48 hrs by Annexin-V-FITC/PI staining based flow cytometric analysis (reference value: 97 %); type: functional
# [27] = molecular target: CYP2C19 (Homo sapiens, UniProt P33261); assay: Inhibition of CYP2C19 in human liver microsomes at 10 uM preincubated for 10 mins followed by addition of NADPH-regenerating system and measured after 15 mins by LC-MS/MS analysis relative to control; type: ADME, Microsome; details: time 25 min
# [28] = Metabolic stability in human liver microsomes assessed as compound remaining at 100 uM measured after 60 mins in the presence of NADPH by LC-MS/MS analysis; type: ADME, Microsome; details: read-out: Stability
# [29] = tested on: MCF7; assay: Induction of cell cycle arrest in human MCF7 cells assessed as G2 phase cells at 0.25 uM measured after 48 hrs by flow cytometry analysis (reference value: 31.8 %); type: functional
# Chain of CYP2C19 (P33261 whole entry): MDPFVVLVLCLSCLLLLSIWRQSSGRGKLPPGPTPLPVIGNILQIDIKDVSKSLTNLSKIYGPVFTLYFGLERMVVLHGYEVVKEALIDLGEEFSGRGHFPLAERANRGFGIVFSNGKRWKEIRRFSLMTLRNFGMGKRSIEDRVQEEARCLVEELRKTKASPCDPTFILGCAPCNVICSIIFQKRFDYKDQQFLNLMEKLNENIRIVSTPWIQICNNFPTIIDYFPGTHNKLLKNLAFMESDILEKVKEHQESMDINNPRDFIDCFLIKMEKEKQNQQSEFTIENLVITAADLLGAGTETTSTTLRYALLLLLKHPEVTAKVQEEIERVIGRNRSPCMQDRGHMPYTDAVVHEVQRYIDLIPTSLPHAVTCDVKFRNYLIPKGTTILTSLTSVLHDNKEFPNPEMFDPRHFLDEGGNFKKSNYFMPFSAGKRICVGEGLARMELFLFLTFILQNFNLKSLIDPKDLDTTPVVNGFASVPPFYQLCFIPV
# Chain of CYP2C9 (P11712 whole entry): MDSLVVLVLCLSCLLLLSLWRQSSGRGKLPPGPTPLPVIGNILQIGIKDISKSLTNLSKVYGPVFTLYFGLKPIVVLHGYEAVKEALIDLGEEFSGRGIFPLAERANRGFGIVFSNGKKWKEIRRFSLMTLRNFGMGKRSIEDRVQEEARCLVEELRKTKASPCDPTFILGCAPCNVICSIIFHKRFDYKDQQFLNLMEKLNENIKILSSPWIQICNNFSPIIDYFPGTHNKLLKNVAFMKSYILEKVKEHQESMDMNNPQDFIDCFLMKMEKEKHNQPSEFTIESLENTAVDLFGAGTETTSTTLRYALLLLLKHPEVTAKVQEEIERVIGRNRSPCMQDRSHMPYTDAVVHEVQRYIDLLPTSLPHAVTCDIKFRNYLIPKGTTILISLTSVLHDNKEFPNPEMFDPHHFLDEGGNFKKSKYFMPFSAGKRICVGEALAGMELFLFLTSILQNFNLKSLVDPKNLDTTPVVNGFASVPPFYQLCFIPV
# Chain of Serine/threonine-protein kinase PAK 4 (O96013 whole entry): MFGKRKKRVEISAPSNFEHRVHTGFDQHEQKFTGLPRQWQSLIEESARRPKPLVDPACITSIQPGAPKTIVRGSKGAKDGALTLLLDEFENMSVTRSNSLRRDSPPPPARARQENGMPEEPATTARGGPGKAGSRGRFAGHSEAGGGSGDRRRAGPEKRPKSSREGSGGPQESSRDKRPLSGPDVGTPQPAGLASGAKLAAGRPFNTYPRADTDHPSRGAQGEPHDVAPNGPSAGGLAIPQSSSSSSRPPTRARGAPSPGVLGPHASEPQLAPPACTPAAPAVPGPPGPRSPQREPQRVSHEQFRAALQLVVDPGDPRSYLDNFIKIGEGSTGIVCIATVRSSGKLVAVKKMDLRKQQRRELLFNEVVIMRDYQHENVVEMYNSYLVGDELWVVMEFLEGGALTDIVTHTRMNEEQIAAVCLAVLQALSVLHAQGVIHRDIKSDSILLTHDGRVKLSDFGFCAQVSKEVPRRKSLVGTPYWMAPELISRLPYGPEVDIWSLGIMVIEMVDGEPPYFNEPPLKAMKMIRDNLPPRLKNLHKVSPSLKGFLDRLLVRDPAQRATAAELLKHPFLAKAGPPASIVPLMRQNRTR
compound,measurement,setting,value
Cc1cc(Nc2nc(NCc3ccc(F)cc3F)nc3c2cnn3C2CCOCC2)n[nH]1,Activity,[1],43.6%
same,Activity,[2],7.58%
same,"inhibition at 0.25 h, 10 µM",[3],21.2%
same,IC50,[4],1750 nM
same,Activity,[5],74.9%
same,Activity,[6],44.6%
same,Activity,[7],32.2%
same,Activity,[8],67.6%
same,IC50,[9],360 nM
same,Activity,[10],4.74%
same,bioavailability,[11],8.03%
same,Activity,[12],8.49%
same,Activity,[13],59.7%
same,Activity,[14],0.62%
same,MRT,[15],1.07 h
same,Activity,[16],68.5%
same,Activity,[17],0.39%
same,Activity,[18],65%
same,Activity,[19],19.2%
same,Activity,[20],0.37%
same,Activity,[21],1.15%
same,Activity,[22],79.3%
same,Activity,[23],24.04%
same,"inhibition at 0.25 h, 10 µM",[24],25.4%
same,Activity,[25],53.4%
same,Activity,[26],19.7%
same,"inhibition at 0.25 h, 10 µM",[27],32.9%
same,"remaining at 1 h, 100 µM",[28],25.2%
same,Activity,[29],44.4%
